The text below walks through data of US20070135406A1, “Diazabicyclononene and tetrahydropyridine derivatives with a new side-chain” (priority 2003, published 2007).

The target in the experiment is T1, human recombinant renin (Homo sapiens, UniProt P00797).
T1 sequence (P00797 67-406): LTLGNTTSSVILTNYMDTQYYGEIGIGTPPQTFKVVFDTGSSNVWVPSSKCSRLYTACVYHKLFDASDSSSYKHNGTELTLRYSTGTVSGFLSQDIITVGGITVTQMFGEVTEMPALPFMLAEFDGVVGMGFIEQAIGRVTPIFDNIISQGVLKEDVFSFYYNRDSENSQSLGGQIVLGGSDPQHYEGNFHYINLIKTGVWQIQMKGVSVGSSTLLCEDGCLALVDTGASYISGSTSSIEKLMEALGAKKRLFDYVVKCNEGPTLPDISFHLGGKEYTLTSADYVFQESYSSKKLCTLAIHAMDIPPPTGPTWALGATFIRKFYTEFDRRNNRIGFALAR
The experiment is described as follows: Inhibition of human recombinant renin (enzymatic in vitro assay, Ang I detected by EIA). Type of experiment: biochemical. To be noted: human recombinant renin 0.16 ng/mL, synthetic human angiotensin(1-14) 0.5 μM, 37° C. for 3 h. The method, then: Inhibition of Human Recombinant Renin by the Compounds of the Invention The enzymatic in vitro assay was performed in 384well polypropylene plates (Nunc). The assay buffer consisted of 10 mM PBS (Gibco BRL) including 1 mM EDTA and 0.1% BSA. The incubates were composed of 50 μL per well of an enzyme mix and 2.5 μL of renin inhibitors in DMSO. The enzyme mix was premixed at 4° C. and consists of the following components: • human recombinant renin (0.16 ng/mL).synthetic human angiotensin(1-14) (0.5 μM) • hydroxyquinoline sulfate (1 mM) The mixtures were then incubated at 37° C. for 3 h. To determine the enzymatic activity and its inhibition, the accumulated Ang I was detected by an enzyme immunoassay (EIA) in 384well plates (Nunc). 5 μL of the incubates or standards were transferred to immuno plates which were previously coated with a covalent complex of Ang I and bovine serum albumin (Ang I—BSA). […] of Ang I-antibodies in essaybuffer above including 0.01% Tween 20 were added and a primary incubation made at 4° C. overnight The plates were washed 3 times with PBS including 0.01% Tween 20, and then incubated for 2 h at rt with an antirabbit-peroxidase coupled antibody (WA 934, Amersham).

SMILES strings stand for the structures.

The IC50 is the midpoint of a concentration-inhibition curve. As for `COCCCOc1nccc(CN(C(=O)C2=C(c3ccc(CCCOc4c(F)ccc(F)c4Cl)cc3)C[C@@H]3CC[C@H]2N3)C2CC2)c1C` (racemic) [Example 1, (rac.)-(1R*,5S*)-3-{4-[3-(2-Chloro-3,6-difluorophenoxy)propyl]phenyl}-8-azabicyclo[3.2.1]oct-2-ene-2-carboxylic acid cyclopropyl-[2-(3-methoxy-propoxy)-3-methylpyridin-4-ylmethyl]amide], the IC50 worked out at 0.79 nM.
